This note sets out measurements from publication PMC3465515 (Nuclear medicine and biology, 2012).

The target of one assay is T1, human ERα (Homo sapiens, UniProt P03372).
T1 sequence (P03372 1-595): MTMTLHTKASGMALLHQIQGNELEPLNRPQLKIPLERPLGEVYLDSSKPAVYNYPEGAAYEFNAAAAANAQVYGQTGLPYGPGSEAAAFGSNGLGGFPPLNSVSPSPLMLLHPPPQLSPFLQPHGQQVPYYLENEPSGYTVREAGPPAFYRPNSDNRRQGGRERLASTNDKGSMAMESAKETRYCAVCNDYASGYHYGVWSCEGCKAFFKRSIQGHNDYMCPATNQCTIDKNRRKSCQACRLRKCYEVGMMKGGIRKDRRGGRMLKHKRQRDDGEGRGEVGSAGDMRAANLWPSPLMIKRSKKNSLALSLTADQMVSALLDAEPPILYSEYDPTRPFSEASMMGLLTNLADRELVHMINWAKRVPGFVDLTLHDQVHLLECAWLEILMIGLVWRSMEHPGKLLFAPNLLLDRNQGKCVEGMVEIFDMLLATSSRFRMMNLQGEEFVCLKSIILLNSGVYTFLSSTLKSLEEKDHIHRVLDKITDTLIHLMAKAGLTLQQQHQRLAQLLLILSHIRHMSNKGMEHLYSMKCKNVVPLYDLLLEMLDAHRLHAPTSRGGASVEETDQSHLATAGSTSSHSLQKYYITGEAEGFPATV
The assay can be described thus: competitive radiometric binding assay with [3H]estradiol, ERα.

For a further assay, the target named is human ERβ (Homo sapiens, UniProt Q92731). As to the kind of experiment: competitive radiometric binding assay with [3H]estradiol, ERβ. As to conditions: for β/α ratio: ratio of RBA ERβ to RBA ERα.
[1] abbreviates: estradiol = 100, purified full-length human ERα, 18-24 h at 0 °C.
[2] abbreviates: estradiol = 100, purified full-length human ERβ, 18-24 h at 0 °C.

Molecules are shown by their SMILES. Like-named read-outs stand apart in the source and are kept apart here.

Sequence of human ERβ (Q92731 whole entry): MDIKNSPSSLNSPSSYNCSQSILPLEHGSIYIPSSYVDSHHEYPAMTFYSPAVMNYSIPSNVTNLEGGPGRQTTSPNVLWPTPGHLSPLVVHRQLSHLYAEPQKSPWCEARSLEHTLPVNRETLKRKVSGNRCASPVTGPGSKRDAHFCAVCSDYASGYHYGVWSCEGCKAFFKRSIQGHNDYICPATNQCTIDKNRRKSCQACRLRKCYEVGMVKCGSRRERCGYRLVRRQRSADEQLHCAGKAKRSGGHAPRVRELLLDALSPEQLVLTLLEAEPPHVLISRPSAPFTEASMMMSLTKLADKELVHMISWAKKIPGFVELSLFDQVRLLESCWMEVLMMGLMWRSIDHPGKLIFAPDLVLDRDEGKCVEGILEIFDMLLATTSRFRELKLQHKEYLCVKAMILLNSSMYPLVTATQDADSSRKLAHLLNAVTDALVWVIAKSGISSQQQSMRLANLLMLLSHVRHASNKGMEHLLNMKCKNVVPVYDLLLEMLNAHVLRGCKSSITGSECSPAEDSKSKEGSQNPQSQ

For `N#C[C@H](c1ccc(O)cc1)[C@@H](CCF)c1ccc(O)cc1` [FEDPN], the “Relative Binding Affinity (RBA) ERα” value at human ERα (setting [1]) is reported as 0.43 ± 0.09%. The “Relative Binding Affinity (RBA) ERβ” value at human ERβ (setting [2]) is on record as 8.74 ± 1.87%. Moreover, the β/α ratio at human ERβ stood at 20.
The like results for `C=C[C@@]12CCc3cc(O)ccc3[C@H]1CC[C@@]1(C)[C@H]2CC[C@@H]1O` [compound 1, 8β-Vinyl-estra-1,3,5(10)-triene-3,17β-diol] were, in that order, 0.30%, 105% and 350.
Regarding `C=Cc1cc(O)cc2nc(-c3ccc(O)c(F)c3)oc12` [ERB-041], the “Relative Binding Affinity (RBA) ERα” value at human ERα came out at 0.007 ± 0.001%. At human ERβ, the “Relative Binding Affinity (RBA) ERβ” value is listed as 3.22 ± 0.91% and the β/α ratio was found to be 460.
In the case of `C[C@]12CC[C@@H]3c4ccc(O)cc4CC[C@@]3(CCF)[C@@H]1CC[C@@H]2O` [compound 6, 8β-(2-Fluoroethyl)estra-1,3,5(10)-trien-3,17β-diol], the “Relative Binding Affinity (RBA) ERα” value on human ERα (setting [1]) worked out at 0.046 ± 0.005%. The “fold lower affinity than parent 8BVE2, ERα” value at human ERα (vs 8β-vinylestradiol) is reported as approximately 10 fold. In addition, at human ERβ (setting [2]), the “Relative Binding Affinity (RBA) ERβ” value is 8.27 ± 0.98%. For the same compound, at human ERβ, the β/α ratio stood at 179. Besides, on human ERβ (vs 8β-vinylestradiol), the “fold lower affinity than parent 8BVE2, ERβ” value is approximately 10 fold.
